Laboratory results as given in US20230159552A1, “[…] ITS ANALOGUES, METHODS FOR THEIR PREPARATION, AND METHODS OF USE” (priority 2020, published 2023).
Read-outs that look alike come from different tables or passages of the source.

Key:
[1] = system: L1210; experiment: Cytotoxicity against L1210 cell line; type: cell-based; settings: Mus musculus, murine lymphocytic leukemia cell line
Description: (§1) The results of the initial evaluation for cytotoxicity against various cancer cell lines of analogues 38a-f, along with those for 1, 36 and intermediate alcohol 35 are summarized in Table A. L1210 is a murine lymphocytic leukemia cell line. HCT116 and HCT116/VM46 are human colon cancer cell lines, with the latter being a multi-drug resistant variant of the former. MCF-7 is a human breast cancer cell line.

[2] = system: HCT116/VM46; experiment: Cytotoxicity against HCT116/VM46 cell line (multi-drug resistant variant); type: cell-based, human
Description: as §1

[3] = system: MCF-7; experiment: Cytotoxicity against MCF-7 cell line; type: cell-based, human
Description: as §1

[4] = system: HCT116; experiment: Cytotoxicity against HCT116 cell line; type: cell-based, human
Description: as §1

[5] = HCT-116/VM46, multi-drug resistant human colon cancer cell line, read-out: Cell Line (IC50, nM) HCT116/ VM46
[6] = MCF7, human breast cancer cell line, read-out: Cell Line (IC50, nM) MCT-7
[7] = HCT-116, human colon cancer cell line, read-out: Cell Line (IC50, nM) HCT116

SMILES	IC50 [1] [nM]	IC50 [2, 5] [nM]	IC50 [3, 6] [nM]	IC50 [4, 7] [nM]	fold less potent than 1 ([4]; relative to meayamycin (1), cell line not given) [fold]	IC50 ([2]; Homo sapiens, HCT-116/VM46, read-out: Cell Line (IC50, nM) HCT116/ VM46) [nM]	IC50 ([3]; Homo sapiens, MCF7, read-out: Cell Line (IC50, nM) MCT-7) [nM]	IC50 ([4]; Homo sapiens, HCT-116, read-out: Cell Line (IC50, nM) HCT116) [nM]
CC(/C=C/[C@H]1OC(C)(C)C[C@@]2(CO2)[C@@H]1O)=C\C[C@@H]1O[C@H](C)[C@H](NC(=O)/C=C\[C@H](C)O)C[C@@H]1C [Compound 35]	7.8	7.4	47	9.7	–	–	–	–
CC(/C=C/[C@H]1OC(C)(C)C[C@@]2(CO2)[C@@H]1O)=C\C[C@@H]1O[C@H](C)[C@H](NC(=O)/C=C\[C@H](C)OC(=O)N2CCN(C)CC2)C[C@@H]1C [Compound 36]	790	840	930	630	–	–	–	–
CC(/C=C/[C@H]1OC(C)(C)C[C@@]2(CO2)[C@@H]1O)=C\C[C@@H]1O[C@H](C)[C@H](NC(=O)/C=C\[C@H](C)OC(=O)N2CCSCC2)C[C@@H]1C [Compound 38b]	0.6	0.52	0.42	0.48	–	–	–	–
CC(/C=C/[C@H]1OC(C)(C)C[C@@]2(CO2)[C@@H]1O)=C\C[C@@H]1O[C@H](C)[C@H](NC(=O)/C=C\[C@H](C)OC(=O)N2CCCCC2)C[C@@H]1C [Compound 38c]	0.44	0.59	2.7	0.68	–	–	–	–
CC(/C=C/[C@H]1OC(C)(C)C[C@@]2(CO2)[C@@H]1O)=C\C[C@@H]1O[C@H](C)[C@H](NC(=O)/C=C\[C@H](C)OC(=O)N(C)C)C[C@@H]1C [Compound 38d]	0.58	0.53	0.39	0.54	–	–	–	–
CC(/C=C/[C@H]1OC(C)(C)C[C@@]2(CO2)[C@@H]1O)=C\C[C@@H]1O[C@H](C)[C@H](NC(=O)/C=C\[C@H](C)OC(=O)c2ccccc2)C[C@@H]1C [Compound 38e]	1.8	0.65	2.4	0.72	–	–	–	–
CC(/C=C/[C@H]1OC(C)(C)C[C@@]2(CO2)[C@@H]1O)=C\C[C@@H]1O[C@H](C)[C@H](NC(=O)/C=C\[C@H](C)OC(=O)C(C)(C)C)C[C@@H]1C [Compound 38f]	1.2	2.4	–	3.5	5	–	–	–
CC(=O)O[C@@H](C)/C=C\C(=O)N[C@@H]1C[C@H](C)[C@H](C/C=C(C)/C=C/[C@H]2OC(C)(C)C[C@@]3(CO3)[C@@H]2O)O[C@@H]1C [Meayamycin (1), Meayamycin, reference compound]	0.54	0.51	0.31	0.56	–	–	–	–
CC(/C=C/[C@H]1OC(C)(C)C[C@@]2(CO2)[C@@H]1O)=C\C[C@@H]1O[C@H](C)[C@H](NC(=O)/C=C\[C@H](C)OC(=O)N2CCOCC2)C[C@@H]1C [Meayamycin B (38a), Meayamycin B]	–	–	–	–	–	0.55	0.39	0.49
